For orientation: CC50 means the concentration giving 50% cytotoxicity. A lower CC50 goes with harm at low concentration. The term EC50 denotes the midpoint of the concentration-response curve. Usually EC90 stands for the concentration at which the effect reaches the 90% level. By IC50 is commonly meant the midpoint of a concentration-inhibition curve. Low readings indicate higher potency, high ones lower potency.

The values that follow come from patent publication US9394331B2, “2′-spiro-nucleosides and derivatives thereof useful for treating hepatitis C virus and dengue virus infections” (priority 2010, dated 2016).

A short description of data set [1]: Cytotoxicity reported with the dengue assay. The class given is cell-based. Conditions: Table 6; cell line not stated.
Data set [2] has as its system Dengue 2 strain New Guinea C. Put plainly: Dengue CPE assay. Conditions: Table 6; BHK-21 cells, 3 days, 50% cells surviving; read-out: EC50, activity against dengue virus. The class given is cell-based, Dengue virus 2. On the procedure:
Dengue CPE Assay. To measure cytopathic effect of Dengue virus 2, BHK-21 ([…], CCL-10 ATCC Manassas, Va.) cells were seeded at a density of 20,000 cells/well in a 96-well black/clear bottom plates (Becton Dickinson, Franklin Lakes, N.J.) one day prior to start of the assay and allowed to attach overnight in EMEM (ATCC Manassas, Va.) +10% FBS (Invitrogen, Carlsbad, Calif.) at 37° C. in a humidified 5% CO2 atmosphere. The next day, the medium was removed and the cells were infected with Dengue 2 strain New Guinea C (VR-1584, ATCC Manassas, Va.) at an MOI of 0.08 pfu/cell for two hours in 50 μL EMEM+2% FBS. For both the single point and dose response assays, compounds (2× concentration) were diluted in EMEM+2% FBS and 50 μL was added to infected cells without removing virus. Cells were incubated for 3 days at 37° C. in a humidified 5% CO2 atmosphere. The medium was aspirated and 50 μL of CellTiter-Glo (Promega, Madison, Wis.) was added to each well and read for 0.1 seconds on a Perkin Elmer Victor3 (Waltham, Mass.) plate reader. Percent survival was determined by subtracting the average value of infected control wells and normalizing to the non-infected wells. The effective concentration was calculated from the dose response data by forecasting 50% cells surviving with drug treatment.

Data set [3] deals with Huh7, HepG2, BxPC3, or CEM cells. Briefly: Cell cytotoxicity assay (MTS). It is filed as cell-based. Conditions: Table 3; cell line not stated. As to the method:
Cell cytotoxicity assays. Each compound (serially diluted from 100 μM) was added to Huh7 (2×10^3 cells/well), HepG2 (2×10^3 cells/well), BxPC3 (2×10^3 cells/well), or CEM (5×10^3 cells/well) cells and allowed to incubate for 8 days at 37° C. A medium only control was used to determine the minimum absorbance value […]. At the end of the growth period, MTS dye from the CellTiter 96 Aqueous One Solution Cell Proliferation Assay kit (Promega) was added to each well and the plate was incubated for an additional 2 hours. The absorbance at 490 nm was read with a Victor3 plate reader (Perkin Elmer) using the medium only control wells as blanks. The 50% inhibition value (CC50) was determined by comparing the absorbance in wells containing cells and test compound to untreated cell control wells.

The next data set relates to HCV replicon. Briefly: HCV replicon assay (Clone A cells and ET-lunet cells, HCV RNA by real time PCR). It is filed as cell-based, hepatitis C virus. To be noted: Table 3, HCV 1b replicon. On the procedure: HCV replicon assay. HCV replicon assays using Clone A cells and ET-lunet cells were performed as described previously. L. J. Stuyver et al. Antimicrob. Agents Chemother. 2004, 48, 651-654. Briefly, Clone A cells and ET-lunet cells were seeded at a density of 1500 and 3000 cells per well in a 96-well plate, respectively. Test compounds serially diluted in culture medium without G418 were added to cells. Plates were incubated at 37° C. in a 5% CO2 atmosphere for 4 days. Inhibition of HCV RNA replication was determined by quantitative real time PCR. See, e.g., L. J. Stuyver et al. Antiviral Chem. Chemother. 2006, 17, 79-87.
To express the antiviral effectiveness of a compound, the threshold RT-PCR cycle of the test compound was subtracted from the average threshold RT-PCR cycle of the no-drug control (ΔCtHCV). A ΔCt of 3.3 equals a 1-log 10 reduction (equal to the 90% effective concentration [EC90]) in replicon RNA levels. The cytotoxicity of the test compound could also be expressed by calculating the ΔCtrRNA values. The ΔΔCt specificity parameter could then be introduced (ΔCtHCV-ΔCtrRNA), in which the levels of HCV RNA are normalized for the rRNA levels and calibrated against the no-drug control.
For orientation: A replicon is a self-replicating genome or part of one, used to study replication in cells.

Data set [4] deals with wild type NS5B Genotype 1b (Hepatitis C virus genotype 1b (isolate Con1) (HCV), UniProt Q9WMX2). Briefly: HCV NS5B polymerase reaction, wild type. The class given is biochemical. To be noted: Table 5, nucleoside triphosphates.
wild type NS5B Genotype 1b, sequence (Q9WMX2 2420-3010): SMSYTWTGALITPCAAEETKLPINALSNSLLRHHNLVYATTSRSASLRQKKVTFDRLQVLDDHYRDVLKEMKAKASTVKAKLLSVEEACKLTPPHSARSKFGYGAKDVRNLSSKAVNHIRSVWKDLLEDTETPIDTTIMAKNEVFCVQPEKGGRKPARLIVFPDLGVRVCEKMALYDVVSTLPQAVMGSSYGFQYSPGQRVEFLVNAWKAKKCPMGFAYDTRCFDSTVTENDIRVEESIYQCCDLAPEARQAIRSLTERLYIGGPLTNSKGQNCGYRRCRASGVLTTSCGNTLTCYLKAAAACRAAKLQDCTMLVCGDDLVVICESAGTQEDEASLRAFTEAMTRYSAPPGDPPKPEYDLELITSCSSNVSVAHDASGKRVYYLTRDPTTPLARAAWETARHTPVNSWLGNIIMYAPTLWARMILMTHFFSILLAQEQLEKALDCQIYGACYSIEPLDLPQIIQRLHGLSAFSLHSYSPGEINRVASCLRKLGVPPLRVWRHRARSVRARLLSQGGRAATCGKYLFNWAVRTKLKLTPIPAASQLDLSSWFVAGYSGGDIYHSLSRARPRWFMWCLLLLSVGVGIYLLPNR
The target of the next data set is S282T NS5B Genotype 1b (Hepatitis C virus genotype 1b (isolate Con1) (HCV), UniProt Q9WMX2, S2701T). Briefly: HCV NS5B polymerase reaction, S282T mutant. It is filed as biochemical. Conditions: Table 5, nucleoside triphosphates. As to the method:
The HCV NS5B reaction was performed in a 20 μL mixture containing varying concentrations of the test compound, 1 μM of all four natural ribonucleotides, [α-^32P]UTP, 20 ng/μL of genotype 1b (−) IRES RNA template, 1 unit/μL of SUPERase•In (Ambion, Austin, Tex.), 40 ng/μL of wild type or S282T NS5B Genotype 1b, 1 mM MgCl2, 0.75 mM MnCl2, and 2 mM DTT in 50 mM Hepes buffer (pH 7.5). The reaction was quenched by adding 80 μL of stop solution (12.5 mM EDTA, 2.25 M NaCl, and 225 mM sodium citrate) after incubating at 27° C. for 30 minutes. The radioactive RNA products were separated from unreacted substrates by passing the quenched reaction mixture through a Hybond N+ membrane (GE Healthcare, Piscataway, N.J.) using a dot-blot apparatus. The RNA products were retained on the membrane and the free nucleotides were washed out. The membrane was washed 4 times with a solution containing 0.6 M NaCl and 60 mM sodium citrate. After rinsing the membrane with water followed by ethanol, the membrane was exposed to a phosphorscreen and the products were visualized and quantified using a phosphorimager. The IC50 values were calculated using GraFit program version 5 (Erithacus Software, Horley, Surrey, UK). All the reactions were done in duplicate and the results were reported as IC50±standard error.

S282T NS5B Genotype 1b, sequence (Q9WMX2 2420-3010 S2701T): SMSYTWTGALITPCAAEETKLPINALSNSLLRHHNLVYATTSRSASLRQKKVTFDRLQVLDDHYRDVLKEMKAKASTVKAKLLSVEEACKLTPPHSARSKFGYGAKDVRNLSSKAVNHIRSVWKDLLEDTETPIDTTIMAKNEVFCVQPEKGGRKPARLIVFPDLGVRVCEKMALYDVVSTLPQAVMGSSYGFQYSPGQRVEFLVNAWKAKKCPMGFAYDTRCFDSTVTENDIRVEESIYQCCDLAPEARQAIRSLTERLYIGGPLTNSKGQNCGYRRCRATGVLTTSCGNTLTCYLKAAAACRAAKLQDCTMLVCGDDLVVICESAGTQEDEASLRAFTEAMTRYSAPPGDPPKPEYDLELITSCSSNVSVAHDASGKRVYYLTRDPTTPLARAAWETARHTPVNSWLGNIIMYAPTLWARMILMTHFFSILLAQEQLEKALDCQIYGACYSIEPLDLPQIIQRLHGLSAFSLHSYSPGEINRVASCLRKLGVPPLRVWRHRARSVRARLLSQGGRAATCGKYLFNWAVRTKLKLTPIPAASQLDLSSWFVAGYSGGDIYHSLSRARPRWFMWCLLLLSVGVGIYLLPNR

On to `COc1nc(N)nc2c1ncn2C1OC(COP(=O)(N[C@@H](C)C(=O)OCc2ccccc2)Oc2ccccc2)[C@@H](O)[C@]12CCO2` (some centres unmarked) [compound 131], for which the CC50 in data set [1] and in data set [3] was > 20 µM throughout. Besides, the EC50 was found to be 1.49 µM in data set [2] and 11.7 µM with HCV replicon (read-out: EC50, anti-HCV 1b activity). Moreover, the EC90 in the data set on HCV replicon (read-out: EC90, anti-HCV 1b activity) was > 20 µM.

On to `O=c1ccn(C2OC(CO)[C@@H](O)[C@@]23CCCO3)c(=O)[nH]1` (some centres unmarked) [compound 135], for which the concentration for half-maximal inhibition (IC50) in data set [4] was > 100 µM.

For `O=c1ccn(C2OC(CO)[C@@H](O)[C@]23CCO3)c(=O)[nH]1` (some centres unmarked) [compound 136], the concentration for half-maximal inhibition (IC50) at S282T NS5B Genotype 1b is > 100 µM; in data set [4], 39.4 µM.

Turning to `Nc1ccn(C2OC(CO)[C@@H](O)[C@]23CCCO3)c(=O)n1` (some centres unmarked) [compound 137], the IC50 is > 100 µM against S282T NS5B Genotype 1b and > 45.3 µM in data set [4].

Take `Nc1ccn(C2OC(CO)[C@@H](O)[C@@]23CCCO3)c(=O)n1` (some centres unmarked) [compound 138]: the IC50 in data set [4] is > 100 µM.

Take `Nc1ccn(C2OC(CO)[C@@H](O)[C@@]23CCO3)c(=O)n1` (some centres unmarked) [compound 139]: the IC50 in data set [4] was > 100 µM.

`Nc1ccn(C2OC(CO)[C@@H](O)[C@]23CCO3)c(=O)n1` (some centres unmarked) [compound 140]: the IC50 at S282T NS5B Genotype 1b is 56.7 µM; in data set [4] it was > 8.48 µM.
